Literature values, collected in patent US20110092560A1, “TOPICAL COMPOSITION FOR CONTROLLING ECTOPARASITES IN DOGS AND CATS” (CEVA SANTE ANIMALE SA, priority 2008, published 2011).

Assays:
[1] = mouse, in vivo, po
[2] = in vivo

With `N#Cc1nn(-c2c(Cl)cc(C(F)(F)F)cc2Cl)c(N)c1[S+]([O-])C(F)(F)F` (centres unmarked) [fipronil, Fipronil] as the compound, how does the “metabolites eliminated in the faeces” value [1] read?
Its value is 45-75%.

And the “metabolites eliminated in the urine” value [1]?
The value was 5-25%.

What about the plasma half-life [1] of the same compound?
Its plasma half-life is 149 to 200 h.

What about the “tissues in which residues were found” value [1] of the same compound?
The value was “fat, the adrenal glands, pancreas, skin, liver, kidney, and muscle”.

And the “carcinogenic, teratogenic or mutagenic potential” value [2]?
Its value is “not carcinogenic, teratogenic or mutagenic”.
